Experimental data reported in PMC11003488 (Journal of Enzyme Inhibition and Medicinal Chemistry, 2023).

Columns and labels:
[1] = tested on: CCRF-CEM; assay: NCI-60 SRB growth inhibition, one-dose and five-dose; format: cell-based; conditions: Homo sapiens
[2] = tested on: HL-60(TB); assay: cells; format: cell-based; conditions: Homo sapiens
[3] = tested on: RPMI-8226; assay: NCI-60 SRB growth inhibition, one-dose and five-dose; format: cell-based; conditions: Homo sapiens
[4] = tested on: SR; assay: as above; format: cell-based; conditions: Homo sapiens
[5] = tested on: A549/ATCC; assay: as above; format: cell-based; conditions: Homo sapiens
[6] = tested on: HOP-92; assay: as above; format: cell-based; conditions: Homo sapiens
[7] = tested on: NCI-H226; assay: as above; format: cell-based; conditions: Homo sapiens
[8] = tested on: NCI-H460; assay: as above; format: cell-based; conditions: Homo sapiens
[9] = tested on: COLO 205; assay: as above; format: cell-based; conditions: Homo sapiens
[10] = tested on: HCT-116; assay: as above; format: cell-based; conditions: Homo sapiens
[11] = tested on: HCT-15; assay: as above; format: cell-based; conditions: Homo sapiens
[12] = tested on: HT29; assay: as above; format: cell-based; conditions: Homo sapiens
[13] = tested on: KM12; assay: as above; format: cell-based; conditions: Homo sapiens
[14] = tested on: SW-620; assay: as above; format: cell-based; conditions: Homo sapiens
[15] = tested on: SF-268; assay: as above; format: cell-based; conditions: Homo sapiens
[16] = tested on: SNB-19; assay: as above; format: cell-based; conditions: Homo sapiens
[17] = tested on: SNB-75; assay: as above; format: cell-based; conditions: Homo sapiens
[18] = tested on: U251; assay: as above; format: cell-based; conditions: Homo sapiens
[19] = tested on: MALME-3M; assay: as above; format: cell-based; conditions: Homo sapiens
[20] = tested on: M14; assay: as above; format: cell-based; conditions: Homo sapiens
[21] = tested on: MDA-MB-435; assay: as above; format: cell-based; conditions: Homo sapiens
[22] = tested on: SK-MEL-5; assay: as above; format: cell-based; conditions: Homo sapiens
[23] = tested on: UACC-62; assay: as above; format: cell-based; conditions: Homo sapiens
[24] = tested on: IGROV1; assay: as above; format: cell-based; conditions: Homo sapiens
[25] = tested on: OVCAR-3; assay: as above; format: cell-based; conditions: Homo sapiens
[26] = tested on: OVCAR-4; assay: as above; format: cell-based; conditions: Homo sapiens
[27] = tested on: OVCAR-5; assay: as above; format: cell-based; conditions: Homo sapiens
[28] = tested on: OVCAR-8; assay: as above; format: cell-based; conditions: Homo sapiens
[29] = tested on: NCI/ADR-RES; assay: as above; format: cell-based; conditions: Homo sapiens
[30] = tested on: 786-0; assay: as above; format: cell-based; conditions: Homo sapiens
[31] = tested on: A498; assay: as above; format: cell-based; conditions: Homo sapiens
[32] = tested on: ACHN; assay: as above; format: cell-based; conditions: Homo sapiens
[33] = tested on: CAKI-1; assay: as above; format: cell-based; conditions: Homo sapiens
[34] = tested on: SN12C; assay: as above; format: cell-based; conditions: Homo sapiens
[35] = tested on: TK-10; assay: as above; format: cell-based; conditions: Homo sapiens
[36] = tested on: DU-145; assay: as above; format: cell-based; conditions: Homo sapiens
[37] = tested on: MCF7; assay: as above; format: cell-based; conditions: Homo sapiens
[38] = tested on: HS 578 T; assay: as above; format: cell-based; conditions: Homo sapiens
[39] = tested on: BT-549; assay: as above; format: cell-based; conditions: Homo sapiens
[40] = tested on: T-47D; assay: as above; format: cell-based; conditions: Homo sapiens, T47D
[41] = tested on: MDA-MB-468; assay: as above; format: cell-based; conditions: Homo sapiens
[42] = tested on: NCI 60-cell line panel (full panel); assay: NCI-60 SRB growth inhibition, full panel mean / MG-MID; format: cell-based, human
[43] = read-out: percent growth inhibition

Compound `COc1ccc(CNc2cccc(C(=O)/C=C/c3cccnc3)c2)cc1OC` [Compound 5c, (E)-1–(3-((3,4-dimethoxybenzyl)amino)phenyl)-3-(pyridin-3-yl)prop-2-en-1-one] has a GI50 [1] of 2.55 µM, an inhibition at 10 µM [1, 43] of 87.1% and a GI50 ([2]; HL-60) of 2.78 µM. It also gave an inhibition at 10 µM ([2]; HL-60, read-out: percent growth inhibition) of 59.6%, a GI50 ([3]; RPMI-8226) of 2.14 µM and an inhibition at 10 µM ([3]; RPMI-8226, read-out: percent growth inhibition) of 99.7%. It also gave a GI50 [4] of 2.48 µM, an inhibition at 10 µM [4, 43] of 92% and a GI50 ([5]; A549) of 17.2 µM. The inhibition at 10 µM ([5]; A549, read-out: percent growth inhibition) was 17.6%, the GI50 ([6]; HOP-92) was 11 µM and the inhibition at 10 µM ([6]; HOP-92, read-out: percent growth inhibition) was 36.8%. The GI50 ([7]; NCI-H226) was 14.7 µM, the inhibition at 10 µM ([7]; NCI-H226, read-out: percent growth inhibition) was 19.7% and the GI50 ([8]; NCI-H460) was 5.22 µM. The inhibition at 10 µM ([8]; NCI-H460, read-out: percent growth inhibition) was 69%, the GI50 ([9]; COLO 205) was 16.5 µM and the inhibition at 10 µM ([9]; COLO 205, read-out: percent growth inhibition) was 84.7%. For the same compound, the GI50 ([10]; HCT-116, HCT-116, five-dose screening) was 1.94 µM, the inhibition at 10 µM ([10]; HCT-116, read-out: percent growth inhibition) was 183% and the GI50 ([11]; HCT-15) was 2.01 µM. It also gave an inhibition at 10 µM ([11]; HCT-15, read-out: percent growth inhibition) of 134%, a GI50 ([12]; HT-29) of 4.38 µM and an inhibition at 10 µM ([12]; HT-29, read-out: percent growth inhibition) of 178%. For the same compound, the GI50 ([13]; KM12) was 1.99 µM, the inhibition at 10 µM ([13]; KM12, read-out: percent growth inhibition) was 165% and the GI50 ([14]; SW-620) was 2.31 µM. It also gave an inhibition at 10 µM ([14]; SW-620, read-out: percent growth inhibition) of 177%, a GI50 ([15]; SF-268) of 5.86 µM and an inhibition at 10 µM ([15]; SF-268, read-out: percent growth inhibition) of 40.4%. The GI50 ([16]; SNB-19) was 9.49 µM, the inhibition at 10 µM ([16]; SNB-19, read-out: percent growth inhibition) was 41.3% and the GI50 ([17]; SNB-75) was 12.9 µM. The inhibition at 10 µM ([17]; SNB-75, read-out: percent growth inhibition) was 34.2%, the GI50 ([18]; U-251) was 3.62 µM and the inhibition at 10 µM ([18]; U-251, read-out: percent growth inhibition) was 124%. It also gave a GI50 [19] of 12.5 µM, an inhibition at 10 µM [19, 43] of 101% and a GI50 ([20]; M14) of 3.82 µM. The inhibition at 10 µM ([20]; M14, read-out: percent growth inhibition) was 146%, the GI50 ([21]; MDA-MB-435) was 2.46 µM and the inhibition at 10 µM ([21]; MDA-MB-435, read-out: percent growth inhibition) was 84.7%. It also gave a GI50 ([22]; SK-MEL-5) of 5.86 µM, an inhibition at 10 µM ([22]; SK-MEL-5, read-out: percent growth inhibition) of 103% and a GI50 ([23]; UACC-62) of 10.5 µM. The inhibition at 10 µM ([23]; UACC-62, read-out: percent growth inhibition) was 61.1%, the GI50 ([24]; IGROV-1) was 11 µM and the inhibition at 10 µM ([24]; IGROV-1, read-out: percent growth inhibition) was 84.3%. For the same compound, the GI50 ([25]; OVCAR-3) was 2.74 µM, the inhibition at 10 µM ([25]; OVCAR-3, read-out: percent growth inhibition) was 107% and the GI50 ([26]; OVCAR-4) was 9.31 µM. For the same compound, the inhibition at 10 µM ([26]; OVCAR-4, read-out: percent growth inhibition) was 80.1%, the GI50 ([27]; OVCAR-5) was 13.9 µM and the inhibition at 10 µM ([27]; OVCAR-5, read-out: percent growth inhibition) was 68.4%. It also gave a GI50 ([28]; OVCAR-8) of 4.01 µM, an inhibition at 10 µM ([28]; OVCAR-8, read-out: percent growth inhibition) of 85.1% and a GI50 [29] of 2.96 µM. It also gave a GI50 ([30]; 786-0) of 3.68 µM, an inhibition at 10 µM ([30]; 786-0, read-out: percent growth inhibition) of 133% and a GI50 ([31]; A498) of 13.6 µM. For the same compound, the inhibition at 10 µM ([31]; A498, read-out: percent growth inhibition) was 20%, the GI50 [32] was 3.95 µM and the inhibition at 10 µM [32, 43] was 132%. For the same compound, the GI50 ([33]; CAKI-1) was 10.2 µM, the inhibition at 10 µM ([33]; CAKI-1, read-out: percent growth inhibition) was 39.8% and the GI50 [34] was 11.8 µM. The inhibition at 10 µM [34, 43] was 83.7%, the GI50 ([35]; TK-10) was 8.14 µM and the inhibition at 10 µM ([35]; TK-10, read-out: percent growth inhibition) was 23.9%. For the same compound, the GI50 ([36]; DU-145) was 12.4 µM, the inhibition at 10 µM ([36]; DU-145, read-out: percent growth inhibition) was 60.5% and the GI50 ([37]; MCF7) was 1.89 µM. For the same compound, the inhibition at 10 µM ([37]; MCF7, read-out: percent growth inhibition) was 186%, the GI50 [38] was 14.3 µM and the inhibition at 10 µM [38, 43] was 98.3%. It also gave a GI50 ([39]; BT-549) of 2.57 µM, an inhibition at 10 µM ([39]; BT-549, read-out: percent growth inhibition) of 135% and a GI50 [40] of 10 µM. The inhibition at 10 µM [40, 43] was 105%, the GI50 ([41]; MDA-MB-468) was 4.06 µM and the inhibition at 10 µM ([41]; MDA-MB-468, read-out: percent growth inhibition) was 157%. For the same compound, the GI50 ([42]; Homo sapiens, 60 cell, read-out: Full panel GI50 mean) was 7.67 µM and the “Full panel Mean GI %” value ([42]; mean over NCI-60 panel, single dose 10 µM) was 87.75%.
